Each block holds one compound with its values, some of them ahead of it. Ends that are not written are not given here.
Tests used:
[1] = test system: retinoid X receptor (RXR); experiment: Etoposide-induced apoptosis in HeLa cells transfected with RXR
[2] = test system: calvaria-derived murine osteoblastic cells; experiment: Apoptosis of calvaria-derived osteoblastic cells (trypan blue); conditions: etoposide-induced apoptosis
ERα [3] = molecular target: T1, ERα (Homo sapiens, UniProt P03372); experiment: C3-luc transcription in HeLa cells transfected with ERα; assay type: cell-based; design: expression vectors encoding the full length ERα or its E domain; expressed in transfected cells; host or cells: HeLa; conditions: HeLa with C3-luc and ERα
T1 sequence (P03372 1-595): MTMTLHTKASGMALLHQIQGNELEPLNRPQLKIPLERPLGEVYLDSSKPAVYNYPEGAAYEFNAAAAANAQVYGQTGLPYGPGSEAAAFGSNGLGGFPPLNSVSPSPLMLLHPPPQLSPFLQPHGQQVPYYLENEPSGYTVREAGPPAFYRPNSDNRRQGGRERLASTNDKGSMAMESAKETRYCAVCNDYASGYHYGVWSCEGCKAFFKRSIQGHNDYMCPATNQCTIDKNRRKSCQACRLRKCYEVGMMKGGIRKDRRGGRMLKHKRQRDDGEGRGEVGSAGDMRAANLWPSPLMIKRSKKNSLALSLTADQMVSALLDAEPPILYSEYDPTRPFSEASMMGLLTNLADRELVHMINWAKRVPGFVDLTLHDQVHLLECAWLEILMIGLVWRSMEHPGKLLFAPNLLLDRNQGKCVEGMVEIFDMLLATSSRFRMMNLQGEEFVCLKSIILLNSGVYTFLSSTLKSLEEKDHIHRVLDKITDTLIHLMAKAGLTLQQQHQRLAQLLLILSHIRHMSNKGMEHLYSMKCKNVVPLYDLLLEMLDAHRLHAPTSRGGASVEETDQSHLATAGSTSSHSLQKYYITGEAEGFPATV
Description: A. For C3-mediated transcription, HeLa cells were transfected with C3-luc and ERα, and were treated with the indicated concentrations of an estren or a pyrazole. Bars represent the mean±SD of the relative luciferase units (RLU) normalized for β-galactosidase activity. p<0.05 versus cells transfected with empty vector (ev), by ANOVA. The anti-apoptotic activity of the estren and the pyrazole was evaluated in calvaria-derived osteoblasts as described in FIG. 1B. * p<0.05 versus cells not treated with etoposide by ANOVA. B. MLO-Y4 cells were incubated for 5, min with the indicated concentrations of the different ligands and ERK phosphorylation was assessed as in FIG. 4A.
DNA constructs. Reporter plasmids carrying the 2.25 Kb of the human IL-6 promoter, 3 copies of the vitellogenin ERE sequences, or the complement 3 promoter driving the firefly luciferase gene (IL-6-luc, ERE-luc, and C3-luc, respectively) were used to assay transcriptional effects of the steroids. The expression plasmids of ER peptide antagonists carrying either αII, or two copies of 293 (2x293) , or two copies of F6 (2xF6) or GRIP fused to the GAL4 DNA binding domain driven by the SV40 promoter have been described previously (Norris, J. D. et al. (1999) Science 285, 744-746). The sequences of the peptides are disclosed in Chang et al. (1999) Mol. Cell. Bio. 19:8226-8239 which is incorporated herein in its entirety. […]

[4] = test system: osteocytic cell line MLO-Y4; experiment: Apoptosis of MLO-Y4 osteocytic cells (trypan blue); assay type: cell-based; conditions: inhibitor 30 min prior to E2 or DHT; etoposide 6 hours
ERK1/2 = experiment: ERK phosphorylation in MLO-Y4 cells (Western blot); assay type: cell-based; conditions: inhibitor 25 min, then 5 min E2 or DHT
Description: Western blot analysis. The phosphorylation status of ERK1/2 was analyzed by immunoblotting using a mouse monoclonal antibody recognizing tyrosine phosphorylated ERK1/2, or a rabbit polyclonal antibody recognizing total ERK1/2, followed by incubation with either an anti-mouse or an anti-rabbit antibody conjugated with horseradish peroxidase (Santa Cruz Biotechnology).

E domain of the ER = experiment: Etoposide-induced apoptosis in HeLa cells transfected with the E domain of ERα; assay type: cell-based, human
Description: (§1) DNA constructs. […] Bio. […] The sequence for peptide αII is […] (SEQ ID NO.: 1). […] (SEQ ID NO.: 3). The sequence for GRIP is […] […] […] (SEQ ID NO.: 4). […] The forward primer contained the restriction site for SalI and the ERα Kozak sequence and the reverse primer contained the BamH1 restriction site. Amplified PCR products were subcloned into the SalI/BamH1 restriction site of pCMV.
(§2) Transient transfections. HeLa cells were plated at 5×10^4/cm^2 and after 16-24 hours were transfected with a total amount of 3 μg of DNA using Lipofectamine (Life Technologies Inc). Following a 4-6 hours of incubation, the transfection mix was replaced with fresh medium containing 10% charcoal-stripped serum and treatments were initiated.

AR = molecular target: T2, AR (Homo sapiens, UniProt P10275); experiment: Etoposide-induced apoptosis in HeLa cells transfected with AR
T2 sequence (P10275 1-920): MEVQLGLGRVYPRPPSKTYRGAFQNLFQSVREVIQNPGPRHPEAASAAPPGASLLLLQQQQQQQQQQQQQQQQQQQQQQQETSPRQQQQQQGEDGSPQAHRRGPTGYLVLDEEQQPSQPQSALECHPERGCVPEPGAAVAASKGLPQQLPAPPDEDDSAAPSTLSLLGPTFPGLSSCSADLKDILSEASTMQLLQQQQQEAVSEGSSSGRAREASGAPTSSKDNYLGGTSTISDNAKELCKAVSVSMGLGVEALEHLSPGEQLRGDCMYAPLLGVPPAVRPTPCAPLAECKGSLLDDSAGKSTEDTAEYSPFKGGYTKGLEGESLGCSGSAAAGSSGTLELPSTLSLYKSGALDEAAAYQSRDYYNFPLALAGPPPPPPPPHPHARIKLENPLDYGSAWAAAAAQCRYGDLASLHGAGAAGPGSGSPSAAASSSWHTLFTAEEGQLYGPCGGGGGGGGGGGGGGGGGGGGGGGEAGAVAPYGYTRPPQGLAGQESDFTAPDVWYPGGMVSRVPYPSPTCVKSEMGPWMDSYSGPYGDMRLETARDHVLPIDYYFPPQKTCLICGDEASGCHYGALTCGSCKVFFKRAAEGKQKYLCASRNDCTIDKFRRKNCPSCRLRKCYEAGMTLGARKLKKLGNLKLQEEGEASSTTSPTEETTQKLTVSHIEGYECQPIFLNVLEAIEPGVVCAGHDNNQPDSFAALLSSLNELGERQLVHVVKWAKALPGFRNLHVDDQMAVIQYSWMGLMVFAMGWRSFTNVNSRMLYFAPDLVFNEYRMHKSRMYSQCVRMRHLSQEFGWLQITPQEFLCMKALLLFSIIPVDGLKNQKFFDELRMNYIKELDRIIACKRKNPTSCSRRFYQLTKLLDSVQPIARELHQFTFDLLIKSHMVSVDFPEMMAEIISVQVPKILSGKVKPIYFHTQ

ERα [5] = molecular target: T1, ERα; experiment: Etoposide-induced apoptosis in HeLa cells transfected with ERα
ERβ [6] = molecular target: T3, ERβ (Homo sapiens, UniProt Q92731); experiment: ERE-luc transcription in HeLa cells transfected with ERβ; assay type: cell-based; design: expressed in transfected cells; host or cells: HeLa; conditions: ERβ carrying HeLa cells, 10^−8 M E2
T3 sequence (Q92731 whole entry, species assumed, the tested form may be a part): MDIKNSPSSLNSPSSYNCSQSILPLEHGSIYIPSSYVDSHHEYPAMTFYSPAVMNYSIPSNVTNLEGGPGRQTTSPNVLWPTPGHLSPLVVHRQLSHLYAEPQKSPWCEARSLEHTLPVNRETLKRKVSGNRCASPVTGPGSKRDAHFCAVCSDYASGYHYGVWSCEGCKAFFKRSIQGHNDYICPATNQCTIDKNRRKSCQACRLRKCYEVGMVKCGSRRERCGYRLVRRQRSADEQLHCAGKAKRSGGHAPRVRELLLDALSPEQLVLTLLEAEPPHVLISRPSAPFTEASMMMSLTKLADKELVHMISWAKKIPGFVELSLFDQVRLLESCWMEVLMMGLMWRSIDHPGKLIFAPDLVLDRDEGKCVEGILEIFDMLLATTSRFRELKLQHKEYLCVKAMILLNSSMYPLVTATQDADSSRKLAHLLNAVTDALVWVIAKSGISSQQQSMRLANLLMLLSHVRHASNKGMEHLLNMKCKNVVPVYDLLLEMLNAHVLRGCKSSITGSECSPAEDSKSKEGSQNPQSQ
Source text: (§3) A. HeLa cells were transiently transfected with the ERα expression vector alone or together with a vector carrying a fusion of the α-II peptide with the GAL4 DNA binding domain driven by the SV40 promoter. In addition, cells were transfected with ERE-luc or IL-6-luc for the transcription studies; or with EGFP-nuc for the apoptosis experiments. […] B. HeLa cells were transfected with ERα or ERβ alone or together with expression vectors carrying 2X293 or 2XF6 peptides. […] C. HeLa cells were transfected with a vector carrying the GRIP peptide alone or together with ERα.
as §1, §2

ERβ [7] = molecular target: T3, ERβ; experiment: IL-6-luc transcription in HeLa cells transfected with ERβ; assay type: cell-based; design: expressed in transfected cells; host or cells: HeLa; conditions: ERβ carrying HeLa cells, 10^−8 M E2
Source text: as §3, §1, §2

ERβ [8] = molecular target: T3, ERβ; experiment: Etoposide-induced apoptosis in HeLa cells transfected with ERβ; conditions: peptide co-transfected, 10^−8 M E2
ERα [9] = molecular target: T1, ERα; experiment: ERE-luc transcription in HeLa cells transfected with ERα; assay type: cell-based; design: expression vectors encoding the full length ERα or its E domain; expressed in transfected cells; host or cells: HeLa; conditions: ERα carrying HeLa cells, 10^−8 M E2
Source text: as §3, §1, §2

ERα [10] = molecular target: T1, ERα; experiment: IL-6-luc transcription in HeLa cells transfected with ERα; assay type: cell-based; design: expression vectors encoding the full length ERα or its E domain; expressed in transfected cells; host or cells: HeLa; conditions: ERα carrying HeLa cells, 10^−8 M E2
Source text: as §3, §1, §2

Compound: C=C1/C(=C\C=C2/CCC[C@]3(C)[C@@H]([C@H](C)CCCC(C)(C)O)CC[C@@H]23)C[C@@H](O)C[C@@H]1O [1,25(OH)2D3, 1,25-dihydroxy-Vitamin D3]
- prevention of etoposide-induced apoptosis [1]: prevented apoptosis

Compound: estren
- anti-apoptotic efficacy on primary calvaria cells [2]: potent anti-apoptotic efficacy
- transcriptional activity on the C3 gene (C3-luc) (ERα [3]): no transcriptional activity

Compound: c1cn[nH]c1 [pyrazole]
- anti-apoptotic efficacy on primary calvaria cells [2]: minimal anti-apoptotic efficacy
- transcriptional activity on the C3 gene (C3-luc) (ERα [3]): potent transcriptional activity

- effect of antagonist/inhibitor on the anti-apoptotic effect of E2 or DHT (AR): abrogated
- effect of antagonist/inhibitor on the anti-apoptotic effect of E2 or DHT (ERα [5]; HeLa transfected with ERα): abrogated
Compound: COc1cccc(-c2cc(=O)c3ccccc3o2)c1N [PD98059]
- effect of inhibitor on the anti-apoptotic effect of E2 and DHT [4]: completely abrogated
- effect of inhibitor on induction of ERK phosphorylation by E2 or DHT (ERK1/2): blocked
- effect of inhibitor on anti-apoptotic activity, compared with full length ERα (E domain of the ER): exactly the same effects

- effect of peptide on E2-induced ERE-Luc transcription (ERβ [6]): blocked
- effect of peptide on E2 effect on IL-6-Luc transcription (ERβ [7]): blocked
- effect of peptide on the anti-apoptotic activity of ERα (E2) (ERα [5]; peptide co-transfected, 10^−8 M E2): blocked
- effect of peptide on the anti-apoptotic activity of ERβ (E2) (ERβ [8]): blocked
- effect of peptide on E2-induced ERE-Luc transcription (ERα [9]): blocked
- effect of peptide on E2-induced decrease in IL-6-Luc transcription (ERα [10]): blocked
Compound: F6: peptide GHEPLTLLERLLMDDKQAV (SEQ ID NO.: 3) interacting with both ERα and ERβ; two copies expressed as GAL4 fusion (also: two copies fused to GAL4 DNA binding domain)
